From patent US20240308982A1, “DEGRADERS OF WILD-TYPE AND MUTANT FORMS OF LRRK2 AND USES THEREOF” (DANA-FARBER CANCER INSTITUTE, INC., priority 2021, published 2024)

System: LRRK2
Experiment: Degradation of LRRK2 (immunoblots of treated cells)
Type: cell-based
Conditions: 448T cells, immunoblot, concentrations 0 to 1000 nM
Procedure: Example 7: Degradation of LRRK2
Cell lines: Mouse embryonic fibroblast (MEF) WT, LRRK2 homozygous knock-ins in MEFs [R1441C; VPS35N(D620N); G2019S].
Tested concentrations of LRRK2 degraders: 0 nM; 10 nM; 30 nM; 100 nM; 300 nM; 1000 nM.
Experimental time points: 1 h; 6 h; 24 h and 48 h.
Complete growth medium: DMEM supplemented with 10% Fetal Bovine Serum; 1% pen/strep; 1% L-Glutamine; 1% MEM Non-essential Amino Acid Solution; 1% sodium pyruvate.
Treatment: WT MEF, and cells containing mutant LRRK2 (R1441C, VPS35N and G2019S) cells were plated at equal density into 6-well plates in a final volume of 3 mL of complete growth medium/well. Degraders were reconstituted in DMSO and used at 1:1000 in cells i.e., 3 μL/3 mL. Treatment began when cells were >60% confluent, starting from the longest, 48 h time point, followed by 24 h, 6 h and finally 1 h.
Cell lysis: Media were aspirated, plates were placed on ice and cells were washed with DPBS. Fifty (50) microliters of an ice-cold lysis buffer containing 50 mM Tris-HCl, pH 7.5, 1% (v/v) Triton X-100, 1 mM EGTA, 1 mM sodium orthovanadate, 50 mM NaF, 0.1% (v/v) 2-mercaptoethanol, 10 mM 2-glycerophosphate, 5 mM sodium pyrophosphate, 0.1 μg/mL microcystin-LR (Enzo Life Sciences), 270 mM sucrose and complete EDTA-free protease inhibitor cocktail (Sigma-Aldrich Cat #11836170001) were added per well. Lysates were centrifuged at 20 817 g (14,000 rpm) for 15 min at 4° C. and supernatants were used to determine protein concentration using Bradford assay (Pierce™ Coomassie (Bradford) Protein Assay Kit, Thermo Scientific Cat #23200) and for Western blot analysis.
Western blot analysis: Cell lysates were mixed with 4× SDS-PAGE sample buffer [50 mM Tris —HCl, pH 6.8, 2% (w/v) SDS, 10% (v/v) glycerol, 0.02% (w/v) Bromophenol Blue and 1% (v/v) 2-mercaptoethanol] to a final total protein concentration of 1 μg/μL and heated at 95° C. for 5 min. […]

DC50: 33 nM
SMILES: CC1(Oc2ccc3[nH]nc(-c4cc(N5CCN(CC6CN(c7ccc8c(c7)C(=O)N(C7CCC(=O)NC7=O)C8=O)C6)CC5)ncn4)c3c2)CC1 (stereo not drawn) [Compound 1, 2-(2,6-dioxopiperidin-3-yl)-5-(3-((4-(6-(5-(1-methylcyclopropoxy)-1H-indazol-3-yl)pyrimidin-4-yl)piperazin-1-yl)methyl)azetidin-1-yl)isoindoline-1,3-dione]
Dmax: 60%
degrader of LRRK2: potent degrader of LRRK2
